The values that follow come from patent US8455033B2, “Taste potentiator compositions and edible confectionery and chewing gum products containing same” (Kraft Foods Global Brands LLC, priority 2005, dated 2013).

For assay [1], the system named is expert panel members. The assay can be described thus: Sucrose Equivalent Value (SEV): expert panel matches the test solution to stock sucrose solutions. As to conditions: for SEV (%): 500 ppm of a single potentiator in pH 3.2 buffered 5% sucrose; for effect on sweetness (SEV) of sucrose solutions: 500 ppm in pH 3.2 buffered 0%, 3%, 5%, 7% and 9% sucrose; for effect on sweetness of the sucrose solution (dose response curve): 0 to 1000 ppm in pH 3.2 buffered 5% sucrose. Format: in vivo. As to the method: One method of measuring the perceived sweetness of a solution is to match it with a stock sucrose solution of known concentration. In the present experiments, the compound of interest is added at a predetermined concentration to a pH 3.2 buffered solution containing 5% sucrose. A number of expert panel members then taste the solution and compare it to a battery of stock sucrose solutions ranging from 3% to 15% at increments of 1%. Each panel member decides which sucrose solution is equisweet with the solution containing the compound of interest. The mean value is then reported as the SEV. Results are reported to 1 decimal place.
In accordance with this methodology, 3-HB was added to a pH 3.2 buffered solution containing 5% sucrose to produce solutions containing from 0 to 1000 ppm 3-HB in 100 ppm increments. […] From FIG. 1 it is apparent that as the dosage of 3-HB increases so does the sweetness of the resultant solution. However the effect is non-linear with each incremental addition having a diminishing effect. The maximum sweetness attainable would appear to be about 7.9% SEV (based on a 5% sucrose solution).
The same methodology as described in Example 7 was repeated with 2,4-DHB in place of 3-HB, to produce the dose response curve for 2,4-DHB (FIG. 2). […] The maximum attainable sweetness would appear to be about 6.7% SEV (based on a 5% sucrose solution).
500 ppm of a sweetener potentiator was added to a pH 3.2 buffered solution containing 5% sucrose and the SEV of the resultant solution determined. […]
pH 3.2 buffered solutions were prepared containing 0%, 3%, 5%, 7% and 9% sucrose. 500 ppm of 2,4-DHB acid, 500 ppm of the sodium salt of 2,4-DHB and 500 ppm of the potassium salt of 2,4-DHB were added individually to each of the sucrose solutions. The SEV for each of the solutions was then determined.
500 ppm of 3-aminobenzoic acid and 500 ppm of 4-aminobenzoic acid were individually added to separate pH 3.2 buffered solutions containing 5% sucrose and the SEVs of the resultant solutions were determined. The SEV of 3-aminobenzoic acid was about 7%, i.e., increased the sweetness intensity of 5% sucrose to about 7%. The SEV of 4-aminobenzoic acid was about 5.5-6%, i.e., increased the sweetness intensity of 5% sucrose to about 5.5-6%.

The conditions of assay [2]: 0.2% added to a 5% sucrose solution; Canadian Patent No. 1208966; cited from earlier work.

Each structure is given as a SMILES string.

Consider `O=C(O)c1cc(O)c(O)c(O)c1` [3,4,5-THB, 3,4,5-tryhydroxybenzoic acid], for which the “SEV (%)” value in assay [1] amounted to 5.1%.

As to `O=C(O)c1ccc(O)c(O)c1` [3,4-DHB, 3,4-dihydroxybenzoic acid], the “SEV (%)” value in assay [1] is 6.4%.

`O=C([O-])c1ccc(O)cc1O.[Na+]` [sodium salt of 2,4-DHB]: the “effect on sweetness (SEV) of sucrose solutions” value (shortened to “effect on sweetness (SEV)”) in assay [1] was “enhances the sweetness of the sucrose solution in every case”.

As to `O=C(O)c1cccc(O)c1` [3-HB, 3-hydroxybenzoic acid], the “effect on sweetness of the sucrose solution (dose response curve)” value in assay [1] was “enhances the sweetness of the sucrose solution”.

`O=C([O-])c1ccc(O)cc1O.[K+]` [potassium salt of 2,4-DHB]: the “effect on sweetness (SEV)” value in assay [1] is reported as “enhances the sweetness of the sucrose solution in every case”.

With `O=C(O)c1ccc(O)cc1O` [2,4-DHB, 2,4-dihydroxybenzoic acid], in assay [2], the “effect on sweetness of sucrose solution” value is reported as “increase in sweetness”. Besides, in assay [1], the “effect on sweetness of the sucrose solution (dose response curve)” value is given as “enhances the sweetness of the sucrose solution” and the “effect on sweetness (SEV)” value was “enhances the sweetness of the sucrose solution in every case”.
